{"source": "patent EP0293133A2", "about": "“Microorganisms and processes for the manufacture of antifungal tri-yne carbonates” (Merck & Co., Inc., priority 1987, dated 1988)", "test_in_all_cases": "agar dilution assay, antifungal activity (MIC)", "assay_type_in_all_cases": "cell-based", "key": {"[1]": {"system": "A. flavus", "conditions": "Aspergillus flavus; A. flavus MF0383; spore inoculum, yeast nitrogen base plus glucose agar, 28°C, 48 hours; read-out: MINIMUM INHIBITORY CONCENTRATION", "procedure": "(§1) The antifungal activity of the compound of formula I was determined by an agar dilution assay as follows: […]\n(§2) The compound of formula I was added to cooled, molten yeast nitrogen base plus glucose agar (1.0 ml of drug plus 9.0 ml agar). Appropriate solvent and media controls (drug free) also were prepared. Prepared plates were stored in the dark at room temperature overnight prior to use.\n(§3) The yeast cultures, maintained in yeast maltose (YM) broth, were transferred to fresh YM medium and incubated overnight at 37°C with shaking (250 rpm). After incubation, each culture was diluted in sterile saline to yield final concentrations of 3 x 10⁵ to 3 x 10⁶ colony forming units (CFU)/ml. The isolates of Aspergillus and Penicillium were maintained on potato dextrose agar slants and spore suspensions made following vigourous shaking with sterile glass beads. The spore preparations were used as the inocula for these three filamentous fungi.\n(§4) Each prepared plate was inoculated with 21 yeast-like and filamentous fungi using a Denley Multipoint Inoculator (Denley, Sussex, England). The inoculator delivers approximately 0.001 ml to the agar surface resulting in inoculation of from 3 x 10² to 3 x 10³ CFUs. The plates were incubated at 28°C for 48 hours. The minimum inhibitory concentrations (MICs) were recorded as the lowest concentration of drug showing no growth or less than three CFU/spot."}, "[2]": {"system": "Aspergillus fumigatus", "conditions": "Aspergillus fumigatus MF4839; spore inoculum, yeast nitrogen base plus glucose agar, 28°C, 48 hours; read-out: MINIMUM INHIBITORY CONCENTRATION", "procedure": "as §1, §2, §3, §4"}, "[3]": {"system": "Ca. guilliermondii", "conditions": "Meyerozyma guilliermondii; Ca. guilliermondii MY1019; yeast nitrogen base plus glucose agar, 28°C, 48 hours; read-out: MINIMUM INHIBITORY CONCENTRATION", "procedure": "as §1, §2, §3, §4"}, "[4]": {"system": "Ca. krusei", "conditions": "Pichia kudriavzevii; Ca. krusei MY1020; yeast nitrogen base plus glucose agar, 28°C, 48 hours; read-out: MINIMUM INHIBITORY CONCENTRATION", "procedure": "as §1, §2, §3, §4"}, "[5]": {"system": "Ca. parapsilosis", "conditions": "Lodderomyces parapsilosis, 48 h, 28°C, read-out: MINIMUM INHIBITORY CONCENTRATION", "procedure": "as §1, §2, §3, §4"}, "[6]": {"system": "Ca. pseudotropicallis", "conditions": "Ca. pseudotropicallis MY1040; yeast nitrogen base plus glucose agar, 28°C, 48 hours; read-out: MINIMUM INHIBITORY CONCENTRATION", "procedure": "as §1, §2, §3, §4"}, "[7]": {"system": "Ca. rugosa", "conditions": "Diutina rugosa; Ca. rugosa MY1022; yeast nitrogen base plus glucose agar, 28°C, 48 hours; read-out: MINIMUM INHIBITORY CONCENTRATION", "procedure": "as §1, §2, §3, §4"}, "[8]": {"system": "Ca. stellatoidea", "conditions": "Candida albicans; Ca. stellatoidea MY1018; yeast nitrogen base plus glucose agar, 28°C, 48 hours; read-out: MINIMUM INHIBITORY CONCENTRATION", "procedure": "as §1, §2, §3, §4"}, "[9]": {"system": "Ca. tropicalis", "conditions": "Candida tropicalis, 48 h, 28°C, read-out: MINIMUM INHIBITORY CONCENTRATION", "procedure": "as §1, §2, §3, §4"}, "[10]": {"system": "Candida albicans", "conditions": "48 h, 28°C, read-out: MINIMUM INHIBITORY CONCENTRATION", "procedure": "as §1, §2, §3, §4"}, "[11]": {"system": "Crypotococcus neoformans", "conditions": "yeast nitrogen base plus glucose agar, 28°C, 48 hours, read-out: MINIMUM INHIBITORY CONCENTRATION", "procedure": "as §1, §2, §3, §4"}, "[12]": {"system": "Penicillium italicum", "conditions": "Penicillium italicum MF2819; spore inoculum, yeast nitrogen base plus glucose agar, 28°C, 48 hours; read-out: MINIMUM INHIBITORY CONCENTRATION", "procedure": "as §1, §2, §3, §4"}, "[13]": {"system": "Sac. cerevisiae", "conditions": "Saccharomyces cerevisiae; Sac. cerevisiae MY1027; yeast nitrogen base plus glucose agar, 28°C, 48 hours; read-out: MINIMUM INHIBITORY CONCENTRATION", "procedure": "as §1, §2, §3, §4"}, "[14]": {"system": "Torulopsis glabrata", "conditions": "Nakaseomyces glabratus; Torulopsis glabrata MY1059; yeast nitrogen base plus glucose agar, 28°C, 48 hours; read-out: MINIMUM INHIBITORY CONCENTRATION", "procedure": "as §1, §2, §3, §4"}}, "note": "Read-outs that look alike come from different tables or passages of the source."}
{"smiles": "C#CC#CC#CC(O)C1OC(=O)OC1CCCCCCC(=O)O", "note": "(stereo not drawn) [compound of formula I]", "values": [{"measurement": "MIC", "setting": "[1]", "result": "> 30", "unit": "µg/mL"}, {"measurement": "MIC", "setting": "[2]", "result": "> 30", "unit": "µg/mL"}, {"measurement": "MIC", "setting": "[3]", "result": 7.5, "unit": "µg/mL"}, {"measurement": "MIC", "setting": "[4]", "result": 30, "unit": "µg/mL"}, {"measurement": "MIC", "setting": "[5]; Ca. parapsilosis MY1009, yeast nitrogen base plus glucose agar", "result": 1.88, "unit": "µg/mL"}, {"measurement": "MIC", "setting": "[5]; Ca. parapsilosis MY1010, yeast nitrogen base plus glucose agar", "result": 0.47, "unit": "µg/mL"}, {"measurement": "MIC", "setting": "[6]", "result": 0.94, "unit": "µg/mL"}, {"measurement": "MIC", "setting": "[7]", "result": 7.5, "unit": "µg/mL"}, {"measurement": "MIC", "setting": "[8]", "result": 7.5, "unit": "µg/mL"}, {"measurement": "MIC", "setting": "[9]; Ca. tropicalis MY1011, yeast nitrogen base plus glucose agar", "result": 15, "unit": "µg/mL"}, {"measurement": "MIC", "setting": "[9]; Ca. tropicalis MY1012, yeast nitrogen base plus glucose agar", "result": 1.88, "unit": "µg/mL"}, {"measurement": "MIC", "setting": "[10]; Ca. albicans MY0992, yeast nitrogen base plus glucose agar", "result": 7.5, "unit": "µg/mL"}, {"measurement": "MIC", "setting": "[10]; Ca. albicans MY1013, yeast nitrogen base plus glucose agar", "result": 0.47, "unit": "µg/mL"}, {"measurement": "MIC", "setting": "[10]; Ca. albicans MY1029, yeast nitrogen base plus glucose agar", "result": 0.47, "unit": "µg/mL"}, {"measurement": "MIC", "setting": "[10]; Ca. albicans MY1055, yeast nitrogen base plus glucose agar", "result": 0.47, "unit": "µg/mL"}, {"measurement": "MIC", "setting": "[10]; Candida albicans MY1058, yeast nitrogen base plus glucose agar", "result": 0.47, "unit": "µg/mL"}, {"measurement": "MIC", "setting": "[11]; Cr. neoformans MY1146", "result": 3.75, "unit": "µg/mL"}, {"measurement": "MIC", "setting": "[11]; Crypotococcus neoformans MY1051", "result": 1.88, "unit": "µg/mL"}, {"measurement": "MIC", "setting": "[12]", "result": 7.5, "unit": "µg/mL"}, {"measurement": "MIC", "setting": "[13]", "result": 1.88, "unit": "µg/mL"}, {"measurement": "MIC", "setting": "[14]", "result": 1.88, "unit": "µg/mL"}]}
